Literature values as cited in patent US20120316143A1, “Ophthalmic composition” (priority 2009, published 2012).
Like-named read-outs stand apart in the source and are kept apart here.

Assays:
patients = conditions: applied topically as a 1% suspension
[1] = test system: normal subjects; patients with ocular hypertension
[2] = test system: rabbits made ocularly hypertensive with dexamethasone

## C[C@]12CC[C@@H](O)C[C@H]1CC[C@@H]1[C@@H]2[C@@H](O)C[C@@]2(C)[C@H]1CC[C@]2(O)C(=O)CO [3-α-5-β-Tetrahydrocortisol]
patients
  effect on intraocular pressure: lower intraocular pressure

## CC1(C)[C@@H](OC(=O)CCC(=O)O)CC[C@]2(C)[C@H]3C(=O)C=C4[C@@H]5C[C@@](C)(C(=O)O)CC[C@]5(C)CC[C@@]4(C)[C@]3(C)CC[C@@H]12 [Carbenoxolone]
[1]; normal subjects
  decrease in intraocular pressure: 20%
[1]; patients with ocular hypertension
  decrease in intraocular pressure: 20%

## C[C@]12CC[C@@H](O)C[C@H]1CC[C@@H]1[C@@H]2[C@@H](O)C[C@@]2(C)[C@H]1CC[C@]2(O)C(=O)CO [Tetrahydrocortisol, tetrahydrocortisol]
[2]
  effect on intraocular pressure (IOP): lower intraocular pressure
